Measurements: patent US10941158B2, “Pyrazole ACC inhibitors and uses thereof” (Gilead Apollo, LLC, priority 2015, dated 2021)
Values after ≈ are worked out from the molar mass of the structure shown. Where two headings read alike, the source gives them in different places.

Legend:
[1] = tested on: C. albicans ATCC 90028; experiment: Anti-Fungal (Candida) Activity Assay, broth microtiter MIC; format: cell-based; settings: read-out: MIC C. albicans ATCC 90028
Outline: (§1)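 In CLSI M27-A3 microtiter plates, yeast from overnight agar culture is inoculated in RPMI 1640–MOPS at a standard-curve density. The MIC is the endpoint scored visually against growth control at 48 h.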

[2] = tested on: C. krusei ATCC 6258; experiment: as above; format: cell-based; settings: Pichia kudriavzevii, read-out: MIC C. krusei ATCC 6258
Outline: as §1

[3] = tested on: C. parapsilosis ATCC 22019; experiment: as above; format: cell-based; settings: Lodderomyces parapsilosis, read-out: MIC C. parapsilosis ATCC 22019
Outline: as §1

[4] = target: human (hACC2) ACC2 (Homo sapiens, UniProt O00763); experiment: In vitro Acetyl-CoA Carboxylase (ACC) inhibition assay (ADP-Glo), hACC2; format: biochemical
Procedure: The detailed procedure is as follows. […] 10 μL ADP glo reagent was added. […] 20 μL kinase detection reagent was added.
“NA” stands for “not assayed.”

[5] = target: fungal (fACC2) ACC2 (UniProt Q00955); settings: read-out: fACC2 IC50; fungal ACC2, ADP-Glo
Procedure: An exemplary procedure for the in vitro ACC inhibition assay, which can be used to determine the inhibitory action of compounds of the invention toward either human (hACC2) or fungal (fACC2) ACC2, follows. The ADP-Glo™ Kinase Assay kit from Promega was used. The ADP-Glo™ Kinase Assay is a luminescent ADP detection assay to measure enzymatic activity by quantifying the amount of ADP produced during an enzyme reaction. The assay is performed in two steps; first, after the enzyme reaction, an equal volume of ADP-Glo™ Reagent is added to terminate the reaction and deplete the remaining ATP. Second, the Kinase Detection Reagent is added to simultaneously convert ADP to ATP and allow the newly synthesized ATP to be measured using a luciferase/luciferin reaction. Luminescence can be correlated to ADP concentrations by using an ATP-to-ADP conversion curve. The detailed procedure is as follows. 50 μL of the compound being tested (600 μM in DMSO) was added to a 384-well dilution plate. The compound was diluted 1:3 in succession in DMSO for each row for 11 wells. 0.5 μL ACC2 working solution was added to 384-well white Optiplate assay plate. 0.5 μL diluted compound solution in each column from step 2 was added to assay plate, each row containing 2 replicates. […] The plates were incubated at room temperature for 15 minutes. 5 μL substrate working solution was added to each well to initiate reaction. Final ACC2 reaction concentrations consist of: 5 nM ACC2, 20 μM ATP, 20 μM acetyl-CoA, 12 mM NaHCO3, 0.01% Brij35, 2 mM DTT, 5% DMSO, test compound concentrations: 30 μM, 10 μM, 3.33 μM, 1.11 μM, 0.37 μM, 0.123 μM, 0.0411 μM, 0.0137 μM, 0.00457 μM, 0.00152 μM, and 0.00051 μM. Plates were incubated at room temperature for 60 minutes. 10 μL ADP glo reagent was added. Plates were incubated at room temperature for 40 minutes. 20 μL kinase detection reagent was added. Plates were incubated at room temperature for 40 minutes, and then read on a Perkin Elmer EnVision 2104 plate reader for luminescence as Relative Light Units (RLU).
Data for each concentration, as well as the positive and negative controls were averaged, and the standard deviation calculated. Percent inhibition was calculated by the formula: 100×(average negative control−compound)/(average negative control−average positive control). The IC50 for each compound was calculated by fitting the data with a non-linear regression equation: Y=Bottom+(Top-Bottom)/(1+10^((Log IC50−X)*Hill Slope)), where X is the log of compound concentration and Y is percent inhibition.
Compounds having an activity designated as “AA” provided an IC50 0.0006-0.003 μM; provided an “A” provided an IC50 0.003-0.01 μM; compounds having an activity designated as “B” provided an IC50 0.01-0.04 μM; and compounds having an activity designated as “C” provided an IC50>0.04 μM IC50. “NA” stands for “not assayed.”

[6] = tested on: Rhizoctonia solani (Rs); experiment: Growth inhibition assay of fungal pathogens; format: cell-based; settings: 48 h, read-out: Concentration at 90% Inhibition Rs
Outline: (§2)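 Spores of Fm, Bc and Dm were suspended in 17% V8 liquid medium, while Rs was inoculated as 1.5 mm mycelial plugs in ¼ PDB. Compounds were tested at final 50, 10 and 2 ppm or 2, 0.4 and 0.08 ppm. Percent growth inhibition at 48 h versus 2% DMSO came from OD600 and visual ratings.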

[7] = tested on: Botrtyis cinerea (Bc); experiment: Growth inhibition assay of fungal pathogens; format: cell-based; settings: 48 h, read-out: Concentration at 90% Inhibition Bc
Outline: as §2

[8] = tested on: Fusarium moniliforme (Fm); experiment: Growth inhibition assay of fungal pathogens; format: cell-based; settings: for IC90: Fusarium verticillioides, 48 h, read-out: Concentration at 90% Inhibition Fm
Outline: as §2

[9] = tested on: Fusarium virguliforme (Fv); experiment: Growth inhibition assay of fungal pathogens; format: cell-based; settings: 48 h
Outline: (§3)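 Compounds in DMSO tested at final 50, 10, 2 ppm or 2, 0.4, 0.08 ppm. Spores in 17% V8 medium, or 1.5 mm mycelial plugs in ¼ PDB for R. solani, incubated with compound. OD600 and visual ratings at 48 h versus 2% DMSO control gave percent growth inhibition.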

[10] = tested on: Septoria tritici (St); experiment: Growth inhibition assay of fungal pathogens; format: cell-based; settings: for IC90: Zymoseptoria tritici, read-out: Concentration at 90% Inhibition St
Outline: as §3

[11] = tested on: Phytophthora capsici (Pc); experiment: Growth inhibition assay of fungal pathogens; format: cell-based; settings: for IC90: Phytophthora capsici, read-out: Concentration at 90% Inhibition Pc
Outline: as §3

[12] = tested on: Collectotrichum graminicola (Cg); experiment: Growth inhibition assay of fungal pathogens; format: cell-based; settings: 48 h, read-out: Concentration at 90% Inhibition Cg
Outline: as §3

[13] = tested on: Diplodia maydis (Dm); experiment: Growth inhibition assay of fungal pathogens; format: cell-based; settings: Stenocarpella maydis, 48 h, read-out: Concentration at 90% Inhibition Dm
Outline: as §2

[14] = ATCC90028, 3 replicates, MIC recorded at 48 h
[15] = ATCC6258, 3 replicates, MIC recorded at 48 h
[16] = ATCC22019, 3 replicates, MIC recorded at 48 h
[17] = Table 4a, 48 hours, read-out: Concentration at 90% Inhibition Fv
[18] = Table 4b, 48 hours, read-out: Concentration at 90% Inhibition Fv

Sequence of fungal (fACC2) ACC2 (Q00955 whole entry): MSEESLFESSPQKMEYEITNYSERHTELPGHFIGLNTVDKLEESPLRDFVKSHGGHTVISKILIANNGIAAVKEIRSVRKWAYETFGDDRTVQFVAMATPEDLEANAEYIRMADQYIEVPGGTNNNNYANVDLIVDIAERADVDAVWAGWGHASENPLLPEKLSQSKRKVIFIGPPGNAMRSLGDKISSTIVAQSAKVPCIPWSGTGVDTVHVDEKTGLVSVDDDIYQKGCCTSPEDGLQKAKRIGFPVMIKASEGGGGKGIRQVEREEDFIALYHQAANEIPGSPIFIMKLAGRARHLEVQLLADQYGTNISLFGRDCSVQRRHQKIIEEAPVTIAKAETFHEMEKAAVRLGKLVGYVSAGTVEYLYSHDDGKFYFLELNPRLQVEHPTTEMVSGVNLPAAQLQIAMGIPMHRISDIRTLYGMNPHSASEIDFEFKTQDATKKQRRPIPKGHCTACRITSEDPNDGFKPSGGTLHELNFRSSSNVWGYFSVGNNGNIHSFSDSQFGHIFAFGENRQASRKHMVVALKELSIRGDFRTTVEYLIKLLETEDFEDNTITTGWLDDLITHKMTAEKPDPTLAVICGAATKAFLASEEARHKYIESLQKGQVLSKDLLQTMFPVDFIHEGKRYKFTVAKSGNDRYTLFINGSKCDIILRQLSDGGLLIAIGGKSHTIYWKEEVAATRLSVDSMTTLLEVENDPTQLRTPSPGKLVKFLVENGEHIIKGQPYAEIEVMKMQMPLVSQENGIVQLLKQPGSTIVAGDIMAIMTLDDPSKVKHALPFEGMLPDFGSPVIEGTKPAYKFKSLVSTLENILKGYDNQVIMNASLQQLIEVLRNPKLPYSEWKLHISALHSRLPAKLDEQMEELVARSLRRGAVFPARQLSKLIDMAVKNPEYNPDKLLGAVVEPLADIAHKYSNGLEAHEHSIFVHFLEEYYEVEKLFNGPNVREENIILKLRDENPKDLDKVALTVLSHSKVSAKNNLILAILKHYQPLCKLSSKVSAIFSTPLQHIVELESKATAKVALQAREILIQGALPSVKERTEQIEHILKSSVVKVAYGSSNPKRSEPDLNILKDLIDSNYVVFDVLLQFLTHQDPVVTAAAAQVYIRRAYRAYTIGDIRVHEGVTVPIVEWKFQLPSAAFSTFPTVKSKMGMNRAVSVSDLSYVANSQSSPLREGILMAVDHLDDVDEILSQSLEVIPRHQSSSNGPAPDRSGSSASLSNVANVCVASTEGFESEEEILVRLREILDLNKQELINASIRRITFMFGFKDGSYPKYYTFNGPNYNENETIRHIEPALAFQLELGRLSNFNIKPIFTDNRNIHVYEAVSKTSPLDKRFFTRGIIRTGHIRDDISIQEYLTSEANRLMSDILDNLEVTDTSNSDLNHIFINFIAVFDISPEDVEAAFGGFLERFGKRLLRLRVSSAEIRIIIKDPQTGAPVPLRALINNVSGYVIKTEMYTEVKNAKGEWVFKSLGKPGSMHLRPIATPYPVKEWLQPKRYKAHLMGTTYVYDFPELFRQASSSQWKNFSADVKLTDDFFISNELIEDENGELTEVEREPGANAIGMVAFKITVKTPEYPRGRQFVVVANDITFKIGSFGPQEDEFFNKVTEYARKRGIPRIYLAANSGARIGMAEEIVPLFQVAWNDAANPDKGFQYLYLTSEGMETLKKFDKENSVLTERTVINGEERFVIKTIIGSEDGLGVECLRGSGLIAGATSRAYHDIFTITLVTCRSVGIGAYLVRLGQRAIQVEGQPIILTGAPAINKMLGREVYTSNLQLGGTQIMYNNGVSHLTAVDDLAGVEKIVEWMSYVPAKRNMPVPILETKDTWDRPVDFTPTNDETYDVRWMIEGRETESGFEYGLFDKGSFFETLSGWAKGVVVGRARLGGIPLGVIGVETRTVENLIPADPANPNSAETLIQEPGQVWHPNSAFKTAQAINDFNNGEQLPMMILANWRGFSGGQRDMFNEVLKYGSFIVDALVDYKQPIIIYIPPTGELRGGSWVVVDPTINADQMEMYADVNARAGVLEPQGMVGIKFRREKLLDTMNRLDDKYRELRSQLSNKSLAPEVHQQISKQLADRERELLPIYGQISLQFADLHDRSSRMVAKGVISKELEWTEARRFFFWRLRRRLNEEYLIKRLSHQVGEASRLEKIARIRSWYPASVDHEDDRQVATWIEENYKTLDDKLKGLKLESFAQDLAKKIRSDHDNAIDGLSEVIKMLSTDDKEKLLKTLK
Sequence of human (hACC2) ACC2 (O00763 whole entry): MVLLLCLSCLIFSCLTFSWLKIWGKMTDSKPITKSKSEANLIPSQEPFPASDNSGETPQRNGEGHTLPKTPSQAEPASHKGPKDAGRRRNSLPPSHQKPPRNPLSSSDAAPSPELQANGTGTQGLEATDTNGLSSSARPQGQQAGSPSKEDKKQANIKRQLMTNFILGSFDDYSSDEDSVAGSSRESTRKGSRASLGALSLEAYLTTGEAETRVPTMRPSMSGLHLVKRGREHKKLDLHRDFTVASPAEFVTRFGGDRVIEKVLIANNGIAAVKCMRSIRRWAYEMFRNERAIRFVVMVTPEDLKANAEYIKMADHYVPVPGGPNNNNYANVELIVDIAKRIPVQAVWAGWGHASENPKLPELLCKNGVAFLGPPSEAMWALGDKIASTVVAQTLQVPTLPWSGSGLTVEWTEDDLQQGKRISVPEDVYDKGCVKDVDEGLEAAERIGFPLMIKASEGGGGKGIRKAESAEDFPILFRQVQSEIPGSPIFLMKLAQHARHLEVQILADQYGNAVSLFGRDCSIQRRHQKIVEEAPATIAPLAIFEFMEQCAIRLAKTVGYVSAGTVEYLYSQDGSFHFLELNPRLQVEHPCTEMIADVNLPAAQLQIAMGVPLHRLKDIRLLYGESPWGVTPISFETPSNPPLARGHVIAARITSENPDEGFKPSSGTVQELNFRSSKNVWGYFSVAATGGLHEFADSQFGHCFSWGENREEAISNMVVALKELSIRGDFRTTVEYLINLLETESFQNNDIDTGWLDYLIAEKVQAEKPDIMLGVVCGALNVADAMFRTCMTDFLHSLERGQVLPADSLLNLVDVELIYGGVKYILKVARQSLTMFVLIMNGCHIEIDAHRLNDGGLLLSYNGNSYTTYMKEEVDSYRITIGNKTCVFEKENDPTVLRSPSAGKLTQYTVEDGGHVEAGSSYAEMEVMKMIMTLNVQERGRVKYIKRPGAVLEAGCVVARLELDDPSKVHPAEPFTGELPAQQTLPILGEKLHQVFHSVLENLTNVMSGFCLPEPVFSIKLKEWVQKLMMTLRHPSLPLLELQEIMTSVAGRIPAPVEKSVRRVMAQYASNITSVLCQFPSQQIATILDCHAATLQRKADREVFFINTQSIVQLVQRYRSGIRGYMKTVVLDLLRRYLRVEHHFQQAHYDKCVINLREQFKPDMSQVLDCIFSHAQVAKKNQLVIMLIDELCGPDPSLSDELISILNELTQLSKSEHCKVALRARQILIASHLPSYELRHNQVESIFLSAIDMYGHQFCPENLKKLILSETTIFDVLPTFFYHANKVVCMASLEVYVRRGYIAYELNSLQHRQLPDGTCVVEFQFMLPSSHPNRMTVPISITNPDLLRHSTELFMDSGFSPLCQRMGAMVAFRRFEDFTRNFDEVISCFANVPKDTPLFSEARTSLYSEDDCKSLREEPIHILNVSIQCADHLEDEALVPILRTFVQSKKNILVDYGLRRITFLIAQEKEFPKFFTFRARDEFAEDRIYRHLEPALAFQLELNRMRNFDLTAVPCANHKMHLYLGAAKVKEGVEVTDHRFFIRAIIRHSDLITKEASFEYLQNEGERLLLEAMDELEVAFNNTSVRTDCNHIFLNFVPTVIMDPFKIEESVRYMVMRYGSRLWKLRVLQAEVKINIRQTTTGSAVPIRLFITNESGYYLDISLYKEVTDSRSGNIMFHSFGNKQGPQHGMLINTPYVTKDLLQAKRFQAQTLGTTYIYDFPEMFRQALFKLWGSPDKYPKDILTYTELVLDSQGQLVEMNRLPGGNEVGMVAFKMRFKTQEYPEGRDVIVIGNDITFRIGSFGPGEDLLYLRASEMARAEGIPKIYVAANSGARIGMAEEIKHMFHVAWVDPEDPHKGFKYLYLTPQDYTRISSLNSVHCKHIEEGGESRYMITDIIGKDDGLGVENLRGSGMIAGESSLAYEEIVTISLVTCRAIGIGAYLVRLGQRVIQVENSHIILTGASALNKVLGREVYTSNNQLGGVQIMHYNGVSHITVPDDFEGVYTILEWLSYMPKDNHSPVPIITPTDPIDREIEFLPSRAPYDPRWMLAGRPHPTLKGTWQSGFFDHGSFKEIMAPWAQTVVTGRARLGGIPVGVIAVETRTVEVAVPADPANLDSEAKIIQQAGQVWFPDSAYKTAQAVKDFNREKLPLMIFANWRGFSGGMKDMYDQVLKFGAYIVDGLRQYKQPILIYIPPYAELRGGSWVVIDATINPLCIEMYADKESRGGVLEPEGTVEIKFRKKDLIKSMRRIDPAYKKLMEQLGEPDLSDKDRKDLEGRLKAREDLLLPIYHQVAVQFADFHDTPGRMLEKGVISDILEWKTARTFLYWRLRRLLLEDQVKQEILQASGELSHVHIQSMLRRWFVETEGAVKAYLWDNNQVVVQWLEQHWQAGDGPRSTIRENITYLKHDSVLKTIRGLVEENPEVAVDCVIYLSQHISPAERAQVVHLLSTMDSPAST

Row | Compound | MIC [1, 14] [µg/mL] | MIC [2, 15] [µg/mL] | MIC [3, 16] [µg/mL] | IC50 [4] [nM] | IC50 [5] [nM] | IC90 ([6]; Table 4a) [µg/mL] | IC90 ([6]; Table 4b) [µg/mL] | IC90 ([7]; Table 4a) [µg/mL] | IC90 ([7]; Table 4b) [µg/mL] | IC90 ([8]; Table 4a, 48 hours) [µg/mL] | IC90 ([8]; Table 4b, 48 hours) [µg/mL] | IC90 [9, 17] [µg/mL] | IC90 [9, 18] [µg/mL] | Concentration at 90% Inhibition St ([10]; Table 4b, 48 hours) | IC90 ([10]; Table 4a, 48 hours) [µg/mL] | IC90 ([11]; Table 4a, 48 hours) [µg/mL] | IC90 ([12]; Table 4a) [µg/mL] | IC90 ([12]; Table 4b) [µg/mL] | IC90 ([13]; Table 4a) [µg/mL] | IC90 ([13]; Table 4b) [µg/mL] | also measured
1 | COc1ccc(F)cc1[C@H](Cn1c(=O)n(C(C)C(=O)N2CCCC2)c(=O)c2c(C)c(-n3cccn3)sc21)OC(C)C (stereo partly drawn) [Compound I-32, 1-((R)-2-(5-fluoro-2-methoxyphenyl)-2-isopropoxyethyl)-5-methyl-3-(1-oxo-1-(pyrrolidin-1-yl)propan-2-yl)-6-(1H-pyrazol-1-yl)thieno[2,3-d]pyrimidine-2,4(1H,3H)-dione] | 2.1 to 4 (≈ 3.6 to 6.85 µM) | 2.1 to 4 (≈ 3.6 to 6.85 µM) | > 4.1 | 3 to 10 | 0.6 to 3 | 2 (≈ 3.43 µM) | 2 (≈ 3.43 µM) | 0.4 (≈ 0.685 µM) | 0.4 (≈ 0.685 µM) | 0.08 (≈ 0.137 µM) | 0.08 (≈ 0.137 µM) | 0.4 (≈ 0.685 µM) | 0.4 (≈ 0.685 µM) | D (“D” provided a compound concentration of >50 ppm at 90% inhibition of fungal pathogens) | > 50 | > 50 | 0.4 (≈ 0.685 µM) | 0.4 (≈ 0.685 µM) | 2 (≈ 3.43 µM) | 2 (≈ 3.43 µM) | Concentration at 90% Inhibition Pc ([11]; Table 4b, 48 hours): D (“D” provided a compound concentration of >50 ppm at 90% inhibition of fungal pathogens)
2 | CCO[C@@H](Cn1c(=O)n(C(C)(C)C(=O)NC(C)C)c(=O)c2c(C)c(-n3cccn3)sc21)c1cc(F)ccc1OC [Compound I-33, (R)-2-(1-(2-ethoxy-2-(5-fluoro-2-methoxyphenyl)ethyl)-5-methyl-2,4-dioxo-6-(1H-pyrazol-1-yl)-1,4-dihydrothieno[2,3-d]pyrimidin-3(2H)-yl)-N-isopropyl-2-methylpropanamide] | – | – | – | 10 to 40 | 0.6 to 3 | 10 (≈ 17.5 µM) | 2 (≈ 3.5 µM) | 2 (≈ 3.5 µM) | 2 (≈ 3.5 µM) | – | – | – | – | – | – | – | 10 (≈ 17.5 µM) | 2 (≈ 3.5 µM) | > 50 | > 50 | MIC ([1]; ATCC90028, 48 h): > 4.1 µg/mL; MIC ([2]; ATCC6258, 48 h): > 4.1 µg/mL; MIC ([3]; ATCC22019, 48 h): > 4.1 µg/mL; IC90 [8]: 0.4 µg/mL (≈ 0.7 µM); Concentration at 90% Inhibition Fm ([8]; Table 4b, 48 hours): A (“A” provided a compound concentration of 0.4 ppm at 90% inhibition of fungal pathogens); IC90 ([9]; read-out: Concentration at 90% Inhibition Fv, Table 4a, 48 hours): 0.4 µg/mL (≈ 0.7 µM); IC90 ([9]; read-out: Concentration at 90% Inhibition Fv, Table 4b, 48 hours): 0.4 µg/mL (≈ 0.7 µM); IC90 ([10]; 48 h, Table 4a): > 50 µg/mL; IC90 ([10]; 48 h, Table 4b): > 50 µg/mL; IC90 ([11]; 48 h, Table 4a): > 50 µg/mL; IC90 ([11]; 48 h, Table 4b): > 50 µg/mL
3 | CCO[C@@H](Cn1c(=O)n(C(C)(C)C(=O)N2CCCC2)c(=O)c2c(C)c(-n3cccn3)sc21)c1cc(F)ccc1OC [Compound I-34, (R)-1-(2-ethoxy-2-(5-fluoro-2-methoxyphenyl)ethyl)-5-methyl-3-(2-methyl-1-oxo-1-(pyrrolidin-1-yl)propan-2-yl)-6-(1H-pyrazol-1-yl)thieno[2,3-d]pyrimidine-2,4(1H,3H)-dione] | > 4.1 | > 4.1 | > 4.1 | 10 to 40 | 0.6 to 3 | 2 (≈ 3.43 µM) | 2 (≈ 3.43 µM) | 0.4 (≈ 0.685 µM) | 0.4 (≈ 0.685 µM) | 0.08 (≈ 0.137 µM) | 0.08 (≈ 0.137 µM) | 0.4 (≈ 0.685 µM) | 0.4 (≈ 0.685 µM) | D (“D” provided a compound concentration of >50 ppm at 90% inhibition of fungal pathogens) | > 50 | > 50 | 2 (≈ 3.43 µM) | 2 (≈ 3.43 µM) | 10 (≈ 17.1 µM) | 2 (≈ 3.43 µM) | Concentration at 90% Inhibition Pc ([11]; Table 4b, 48 hours): D (“D” provided a compound concentration of >50 ppm at 90% inhibition of fungal pathogens)
